pIC50: −log10 of the molar value. Read-outs that look alike come from different tables or passages of the source.

The assay concerns Toledo cells. In words: Cell proliferation assay, Toledo cells (MTS, 72 h). The assay is classed as cell-based. The settings on record: Homo sapiens; for pIC50: Toledo cells, MTS, read-out: Toledo IC50. The method, boiled down:
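Toledo cells (30000/well, RPMI-1640 with 10% FBS) were preincubated for 4 h. They were then exposed to nine compound concentrations from 10000 to 1.5 nM for 72 h at 37 °C, 5% CO2. MTS was added for 2 h and absorbance read at 490 nm to give IC50.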

Turning to `COCCOc1nc2[nH]ccc2cc1Oc1cc(N2CCC3(CC2)CN([C@H]2CCC[C@H]2c2ccccc2C(C)C)C3)ccc1C(=O)NS(=O)(=O)c1ccc(NC[C@H]2CC[C@](C)(O)CC2)c([N+](=O)[O-])c1` (racemic) [Example D-76, N-((4-((((1r,4r)-4-hydroxy-4-methylcyclohexyl)methyl)amino)-3-nitrophenyl)sulfonyl)-4-(2-((1S,2S and 1R,2R)-2-(2-isopropylphenyl)cyclopentyl)-2,7-diazaspiro[3.5]nonan-7-yl)-2-((6-(2-methoxyethoxy)-1H-pyrrolo[2,3-b]pyridin-5-yl)oxy)benzamide], the pIC50 was 9.00.
For the molecule `CC(C)c1ccccc1[C@@H]1CCCN1C1CC2(CCN(c3ccc(C(=O)NS(=O)(=O)c4ccc(NC[C@H]5CC[C@](C)(O)CC5)c([N+](=O)[O-])n4)c(Oc4cnc5[nH]ccc5c4)c3)CC2)C1` (single isomer, unassigned) [Example C-2, 2-((1H-pyrrolo[2,3-b]pyridin-5-yl)oxy)-N-((5-((((1r,4r)-4-hydroxy-4-methylcyclohexyl)methyl)amino)-6-nitropyridin-2-yl)sulfonyl)-4-(2-((R or S)-2-(2-isopropylphenyl)pyrrolidin-1-yl)-7-azaspiro[3.5]nonan-7-yl)benzamide], the IC50 (Toledo, read-out: Toledo IC50 (nM)) amounted to 1 nM.
On to `CC(C)c1ccccc1[C@@H]1CCCN1C1CC2(CCN(c3ccc(C(=O)NS(=O)(=O)c4cc5c(c([N+](=O)[O-])c4)N[C@@H]([C@H]4CC[C@](C)(O)CC4)CO5)c(Oc4cc5cc[nH]c5nc4OC(F)F)c3)CC2)C1` (single isomer, unassigned) [Example D-11, 2-((6-(difluoromethoxy)-1H-pyrrolo [2,3-b]pyridin-5-yl)oxy)-N-(((S)-3-((1r,4S)-4-hydroxy-4-methylcyclohexyl)-5-nitro-3,4-dihydro-2H-benzo[b][1,4]oxazin-7-yl)sulfonyl)-4-(2-((R or S)-2-(2-isopropylphenyl)pyrrolidin-1-yl)-7-azaspiro[3.5]nonan-7-yl)benzamide], for which the pIC50 was 9.00.
Same read-out and setting: as for `CC(C)c1ccccc1[C@H]1CCCN1C1CC2(CCN(c3ccc(C(=O)NS(=O)(=O)c4cc5c(c([N+](=O)[O-])c4)NC([C@@H]4COCCO4)CO5)c(Oc4cnc5[nH]cc(F)c5c4)c3)CC2)C1` (single isomer, unassigned) [Example D-49a, N-(((R or S)-3-((R)-1,4-dioxan-2-yl)-5-nitro-3,4-dihydro-2H-benzo[b][1,4]oxazin-7-yl)sulfonyl)-2-((3-fluoro-1H-pyrrolo[2,3-b]pyridin-5-yl)oxy)-4-(2-((R or S)-2-(2-isopropylphenyl)pyrrolidin-1-yl)-7-azaspiro[3.5]nonan-7-yl)benzamide], the figure is 9.00.
Same read-out and setting: as for `CC(C)c1ccccc1[C@@H]1CC[C@@H](CO)N1C1CC2(CCN(c3ccc(C(=O)NS(=O)(=O)c4cc5c(c([N+](=O)[O-])c4)N[C@@H]([C@H]4CC[C@](C)(O)CC4)CO5)c(Oc4cnc5[nH]cc(F)c5c4)c3)CC2)C1` [Example D-253, 2-((3-fluoro-1H-pyrrolo[2,3-b]pyridin-5-yl)oxy)-N-(((S)-3-((1r,4S)-4-hydroxy-4-methylcyclohexyl)-5-nitro-3,4-dihydro-2H-benzo[b] [1,4]oxazin-7-yl)sulfonyl)-4-(2-((2S,5S)-2-(hydroxymethyl)-5-(2-isopropylphenyl)pyrrolidin-1-yl)-7-azaspiro[3.5]nonan-7-yl)benzamide], the figure is 9.00; as for `CC(C)c1ccccc1[C@@H]1CCCN1C1CC2(CCN(c3ccc(C(=O)NS(=O)(=O)c4cc5c(c([N+](=O)[O-])c4)N[C@@H]([C@H]4CC[C@H](O)CC4)CO5)c(Oc4cnc5[nH]cc(F)c5c4)c3)CC2)C1` (single isomer, unassigned) [Example D-41, 2-((3-fluoro-1H-pyrrolo[2,3-b]pyridin-5-yl)oxy)-N-(((S)-3-((1r,4S)-4-hydroxycyclohexyl)-5-nitro-3,4-dihydro-2H-benzo[b][1,4]oxazin-7-yl)sulfonyl)-4-(2-((R or S)-2-(2-isopropylphenyl)pyrrolidin-1-yl)-7-azaspiro[3.5]nonan-7-yl)benzamide], 9.00; as for `CC(C)c1ccccc1[C@@H]1CCC[C@@H]1N1CC2(CCN(c3ccc(C(=O)NS(=O)(=O)c4ccc(NC[C@H]5CC[C@](C)(O)CC5)c([N+](=O)[O-])c4)c(Oc4cc5cc[nH]c5nc4OC4COC4)c3)CC2)C1` (single isomer, unassigned) [Example D-115, N-((4-((((1r,4r)-4-hydroxy-4-methylcyclohexyl)methyl)amino)-3-nitrophenyl)sulfonyl)-4-(2-((1S,2S or 1R,2R)-2-(2-isopropylphenyl)cyclopentyl)-2,7-diazaspiro[3.5]nonan-7-yl)-2-((6-(oxetan-3-yloxy)-1H-pyrrolo[2,3-b]pyridin-5-yl)oxy) benzamide], 9.00.
For the molecule `CC(C)Oc1nc2[nH]ccc2cc1Oc1cc(N2CCC3(CC2)CC(N2CCC[C@H]2c2ccccc2C(C)C)C3)ccc1C(=O)NS(=O)(=O)c1cc2c(c([N+](=O)[O-])c1)N[C@@H]([C@H]1CC[C@](C)(O)CC1)CO2` (single isomer, unassigned) [Example D-66, N-(((S)-3-((1r,4S)-4-hydroxy-4-methylcyclohexyl)-5-nitro-3,4-dihydro-2H-benzo[b][1,4]oxazin-7-yl)sulfonyl)-2-((6-isopropoxy-1H-pyrrolo[2,3-b]pyridin-5-yl)oxy)-4-(2-((R or S)-2-(2-isopropylphenyl)pyrrolidin-1-yl)-7-azaspiro[3.5]nonan-7-yl)benzamide], the pIC50 is 9.00.
On the same count and under the same terms, the value for `CO[C@H]1CC[C@H]([C@H]2COc3cc(S(=O)(=O)NC(=O)c4ccc(N5CCC6(CC5)CC(N5CCC[C@H]5c5ccccc5C(C)C)C6)cc4Oc4cnc5[nH]cc(F)c5c4)cc([N+](=O)[O-])c3N2)CC1` (single isomer, unassigned) [Example D-44, 2-((3-fluoro-1H-pyrrolo[2,3-b]pyridin-5-yl)oxy)-4-(2-((R or S)-2-(2-isopropylphenyl)pyrrolidin-1-yl)-7-azaspiro[3.5]nonan-7-yl)-N-(((S)-3-((1r,4S)-4-methoxycyclohexyl)-5-nitro-3,4-dihydro-2H-benzo[b][1,4]oxazin-7-yl)sulfonyl)benzamide] was 9.00; that for `CC(C)c1ccccc1[C@@H]1CCCN1C1CC2(CCN(c3ccc(C(=O)NS(=O)(=O)c4cc5c(c([N+](=O)[O-])c4)N[C@H]([C@H]4CC[C@@H](O)CC4)CO5)c(Oc4cnc5[nH]cc(F)c5c4)c3)CC2)C1` (single isomer, unassigned) [Example D-43, 2-((3-fluoro-1H-pyrrolo[2,3-b]pyridin-5-yl)oxy)-N-(R)-3-((1s,4S)-4-hydroxycyclohexyl)-5-nitro-3,4-dihydro-2H-benzo[b][1,4]oxazin-7-yl)sulfonyl)-4-(2-((R or S)-2-(2-isopropylphenyl)pyrrolidin-1-yl)-7-azaspiro[3.5]nonan-7-yl)benzamide] was 9.00.
For the molecule `CC(C)c1ccccc1[C@@H]1CCCN1C1CC2(CCN(c3ccc(C(=O)NS(=O)(=O)c4cc5c(c([N+](=O)[O-])c4)N[C@@H]([C@H]4CC[C@](C)(O)CC4)CO5)c(Oc4cc5cc[nH]c5nc4OC[C@@H](C)O)c3)CC2)C1` (single isomer, unassigned) [Example D-69, N-(((S)-3-((1r,4S)-4-hydroxy-4-methylcyclohexyl)-5-nitro-3,4-dihydro-2H-benzo[b][1,4]oxazin-7-yl)sulfonyl)-2-((6-((7)-2-hydroxypropoxy)-1H-pyrrolo[2,3-b]pyridin-5-yl)oxy)-4-(2-((R or S)-2-(2-isopropylphenyl)pyrrolidin-1-yl)-7-azaspiro[3.5]nonan-7-yl)benzamide], the pIC50 is 9.00.
Still for that read-out and setting: as for `COc1nc2[nH]ccc2cc1Oc1cc(N2CCC3(CC2)CN([C@H]2CCC[C@H]2c2ccccc2C(C)C)C3)ccc1C(=O)NS(=O)(=O)c1cnc(NC[C@H]2CC[C@](C)(O)CC2)c([N+](=O)[O-])c1` (single isomer, unassigned) [Example A-160, N-((6-(((1r,4r)-4-hydroxy-4-methyl-cyclohexyl)methyl)amino)-5-nitro-pyridin-3-yl)sulfonyl)-4-(2-((1S,2S or 1R,2R)-2-(2-isopropylphenyl)cyclo-pentyl)-2,7-diazaspiro[3.5]nonan-7-yl)-2-((6-methoxy-1H-pyrrolo[2,3-b]pyridin-5-yl)oxy)benzamide], the figure is 9.00; as for `CC(C)c1ccccc1[C@@H]1CCC[C@@H]1N1CC2(CCN(c3ccc(C(=O)NS(=O)(=O)c4cc5c(c([N+](=O)[O-])c4)N[C@@H]([C@H]4CC[C@](C)(O)CC4)CO5)c(Oc4cc5cc[nH]c5nc4OC4COC4)c3)CC2)C1` (single isomer, unassigned) [Example D-108, N-(((S)-3-((1r,4S)-4-hydroxy-4-methylcyclohexyl)-5-nitro-3,4-dihydro-2H-benzo[b][1,4]oxazin-7-yl)sulfonyl)-4-(2-((1S,2S or 1R,2R)-2-(2-isopropylphenyl)cyclopentyl)-2,7-diazaspiro[3.5]nonan-7-yl)-2-((6-(oxetan-3-yloxy)-1H-pyrrolo[2,3-b]pyridin-5-yl)oxy) benzamide], 9.00; as for `CC(C)c1ccccc1[C@@H]1CCCN1C1CC2(CCN(c3ccc(C(=O)NS(=O)(=O)c4cc5c(c([N+](=O)[O-])c4)N[C@@H]([C@H]4CC[C@](C)(O)CC4)CO5)c(Oc4cc5c(F)c[nH]c5nc4O[C@@H]4CCOC4)c3)CC2)C1` (single isomer, unassigned) [Example D-220, 2-((3-fluoro-6-(((R)-tetrahydrofuran-3-yl)oxy)-1H-pyrrolo[2,3-b]pyridin-5-yl)oxy)-N-((S)-3-((1r,4S)-4-hydroxy-4-methylcyclohexyl)-5-nitro-3,4-dihydro-2H-benzo [b][1,4]oxazin-7-yl)sulfonyl)-4-(2-((R or S)-2-(2-isopropylphenyl)pyrrolidin-1-yl)-7-azaspiro[3.5]nonan-7-yl)benzamide], 9.00.

What is called pIC50 is the negative decadic logarithm of the IC50, by convention in mol/L. As a reminder, the IC50 is the midpoint of a concentration-inhibition curve.

For the origin of these results see patent US20230159527A1, “COMPOUNDS AS BCL-2 INHIBITORS” (Fochon Pharmaceuticals, Ltd., priority 2020, published 2023).
